#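 These data come from cells grown in 96-well plates and exposed to compound for 48 hours at five concentrations. Here, GI50 denotes the concentration required for 50% inhibition of growth.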 Calls of active or inactive are those of the source. Cut-off read from the data, not from the text of the source: active = GI50 up to about 1.1 µM and inactive = higher.
# Assays:
# Test in all cases: NCI anticancer screen, dose series, 48 h
# A549 = test system: A549
# BT-549 = test system: BT-549
# HT-29 = test system: HT-29
# MOLT-4 = test system: MOLT-4
# SK-MEL-28 = test system: SK-MEL-28
# HL-60 = test system: HL-60
# UACC-62 = test system: UACC-62
# NCI-H226 = test system: NCI-H226
# K562 = test system: K562
# M14 = test system: M14
# COLO 205 = test system: COLO 205
# RPMI-8226 = test system: RPMI-8226
# SF-539 = test system: SF-539
# MCF7 = test system: MCF7
# 786-0 = test system: 786-0
# HCT-15 = test system: HCT-15
# TK-10 = test system: TK-10
# U-251 = test system: U-251
# OVCAR-8 = test system: OVCAR-8
# OVCAR-4 = test system: OVCAR-4
# SF-295 = test system: SF-295
# UACC-257 = test system: UACC-257
# OVCAR-3 = test system: OVCAR-3
# SK-OV-3 = test system: SK-OV-3
# HOP-62 = test system: HOP-62
# SK-MEL-5 = test system: SK-MEL-5
# NCI-H522 = test system: NCI-H522
# NCI/ADR-RES = test system: NCI/ADR-RES
# Malme-3M = test system: Malme-3M
# Hs-578T = test system: Hs-578T
# HCT-116 = test system: HCT-116
# SN12C = test system: SN12C
# SK-MEL-2 = test system: SK-MEL-2
# KM12 = test system: KM12
# SW-620 = test system: SW-620
# MDA-MB-435 = test system: MDA-MB-435
# DU-145 = test system: DU-145
# SNB-75 = test system: SNB-75
# MDA-MB-231 = test system: MDA-MB-231
# IGROV-1 = test system: IGROV-1
# OVCAR-5 = test system: OVCAR-5
# NCI-H23 = test system: NCI-H23
# HOP-92 = test system: HOP-92
# SF-268 = test system: SF-268
# UO-31 = test system: UO-31
# RXF 393 = test system: RXF 393
# MDA-N = test system: MDA-N
# CAKI-1 = test system: CAKI-1
# LOX IMVI = test system: LOX IMVI
# SNB-19 = test system: SNB-19
# CCRF-CEM = test system: CCRF-CEM
# EKVX = test system: EKVX
# ACHN = test system: ACHN
# SR = test system: SR
# PC-3 = test system: PC-3
# HCC 2998 = test system: HCC 2998
# NCI-H460 = test system: NCI-H460
smiles,measurement,setting,value
NC(=O)Nc1c(Cl)cc(S(N)(=O)=O)cc1Cl,GI50,A549,> 100 µM (inactive)
same,GI50,BT-549,> 100 µM (inactive)
same,GI50,HT-29,> 100 µM (inactive)
same,GI50,MOLT-4,> 100 µM (inactive)
same,GI50,SK-MEL-28,> 100 µM (inactive)
same,GI50,HL-60,> 100 µM (inactive)
same,GI50,UACC-62,> 100 µM (inactive)
same,GI50,NCI-H226,> 100 µM (inactive)
same,GI50,K562,> 100 µM (inactive)
same,GI50,M14,> 100 µM (inactive)
same,GI50,COLO 205,> 100 µM (inactive)
same,GI50,RPMI-8226,> 100 µM (inactive)
same,GI50,SF-539,> 100 µM (inactive)
same,GI50,MCF7,> 100 µM (inactive)
same,GI50,786-0,> 100 µM (inactive)
same,GI50,HCT-15,> 100 µM
same,GI50,TK-10,> 100 µM (inactive)
same,GI50,U-251,> 100 µM (inactive)
same,GI50,OVCAR-8,> 100 µM (inactive)
same,GI50,OVCAR-4,> 100 µM (inactive)
same,GI50,SF-295,> 100 µM (inactive)
same,GI50,UACC-257,> 100 µM (inactive)
same,GI50,OVCAR-3,> 100 µM (inactive)
same,GI50,SK-OV-3,> 100 µM (inactive)
same,GI50,HOP-62,> 100 µM (inactive)
same,GI50,SK-MEL-5,> 100 µM (inactive)
same,GI50,NCI-H522,> 100 µM (inactive)
same,GI50,NCI/ADR-RES,> 100 µM (inactive)
same,GI50,Malme-3M,> 100 µM (inactive)
same,GI50,Hs-578T,> 100 µM (inactive)
same,GI50,HCT-116,> 100 µM (inactive)
same,GI50,SN12C,> 100 µM (inactive)
same,GI50,SK-MEL-2,> 100 µM (inactive)
same,GI50,KM12,> 100 µM (inactive)
same,GI50,SW-620,> 100 µM (inactive)
same,GI50,MDA-MB-435,> 100 µM (inactive)
same,GI50,DU-145,> 100 µM (inactive)
same,GI50,SNB-75,> 100 µM (inactive)
same,GI50,MDA-MB-231,> 100 µM (inactive)
same,GI50,IGROV-1,> 100 µM (inactive)
same,GI50,OVCAR-5,> 100 µM (inactive)
same,GI50,NCI-H23,> 100 µM (inactive)
same,GI50,HOP-92,> 100 µM (inactive)
same,GI50,SF-268,> 100 µM (inactive)
same,GI50,UO-31,> 100 µM (inactive)
same,GI50,RXF 393,> 100 µM (inactive)
same,GI50,MDA-N,> 100 µM (inactive)
same,GI50,CAKI-1,> 100 µM (inactive)
same,GI50,LOX IMVI,> 100 µM (inactive)
same,GI50,SNB-19,> 100 µM (inactive)
same,GI50,CCRF-CEM,> 100 µM (inactive)
same,GI50,EKVX,> 100 µM (inactive)
CC(Cc1ccc(O)cn1)(NC(=O)c1ccccc1)C(=O)O (configuration not stated),GI50,A549,> 100 µM (inactive)
same,GI50,BT-549,> 100 µM (inactive)
same,GI50,HT-29,> 100 µM (inactive)
same,GI50,MOLT-4,> 100 µM (inactive)
same,GI50,SK-MEL-28,> 100 µM (inactive)
same,GI50,HL-60,> 100 µM (inactive)
same,GI50,UACC-62,> 100 µM (inactive)
same,GI50,NCI-H226,> 100 µM (inactive)
same,GI50,K562,> 100 µM (inactive)
same,GI50,ACHN,> 100 µM (inactive)
same,GI50,M14,> 100 µM (inactive)
same,GI50,COLO 205,> 100 µM (inactive)
same,GI50,RPMI-8226,> 100 µM (inactive)
same,GI50,SF-539,> 100 µM (inactive)
same,GI50,SR,> 100 µM (inactive)
same,GI50,786-0,> 100 µM (inactive)
same,GI50,HCT-15,> 100 µM
same,GI50,TK-10,> 100 µM (inactive)
same,GI50,U-251,> 100 µM (inactive)
same,GI50,OVCAR-8,> 100 µM (inactive)
same,GI50,OVCAR-4,> 100 µM (inactive)
same,GI50,SF-295,> 100 µM (inactive)
same,GI50,UACC-257,> 100 µM (inactive)
same,GI50,OVCAR-3,> 100 µM (inactive)
same,GI50,SK-OV-3,> 100 µM (inactive)
same,GI50,HOP-62,> 100 µM (inactive)
same,GI50,SK-MEL-5,> 100 µM (inactive)
same,GI50,NCI-H522,> 100 µM (inactive)
same,GI50,NCI/ADR-RES,> 100 µM (inactive)
same,GI50,Malme-3M,> 100 µM (inactive)
same,GI50,Hs-578T,> 100 µM (inactive)
same,GI50,HCT-116,> 100 µM (inactive)
same,GI50,SK-MEL-2,> 100 µM (inactive)
same,GI50,KM12,> 100 µM (inactive)
same,GI50,SW-620,> 100 µM (inactive)
same,GI50,MDA-MB-435,> 100 µM (inactive)
same,GI50,DU-145,> 100 µM (inactive)
same,GI50,SNB-75,40.4 µM (inactive)
same,GI50,MDA-MB-231,> 100 µM (inactive)
same,GI50,PC-3,> 100 µM (inactive)
same,GI50,IGROV-1,> 100 µM (inactive)
same,GI50,OVCAR-5,> 100 µM (inactive)
same,GI50,HCC 2998,> 100 µM (inactive)
same,GI50,NCI-H23,> 100 µM (inactive)
same,GI50,HOP-92,74 µM (inactive)
same,GI50,SF-268,> 100 µM (inactive)
same,GI50,UO-31,> 100 µM (inactive)
same,GI50,RXF 393,> 100 µM (inactive)
same,GI50,MDA-N,> 100 µM (inactive)
same,GI50,CAKI-1,> 100 µM (inactive)
same,GI50,LOX IMVI,> 100 µM (inactive)
same,GI50,SNB-19,> 100 µM (inactive)
same,GI50,CCRF-CEM,> 100 µM (inactive)
same,GI50,EKVX,> 100 µM (inactive)
same,GI50,NCI-H460,> 100 µM (inactive)
